Test results taken from PubChem BioAssay AID1963836 (Molecular Pharmacology Branch, DTP, NCI, 2024).

Tested on: 857933-349-R-J2-PDC complex spheroid viability
Test: Anticancer human tumor 857933-349-R-J2-PDC patient-derived colon adenocarcinoma cell line growth inhibition [POLQ]
Details: for IC50: curve of first compound; for viability, T/C: stronger effect = lower value
Procedure, shortened: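 Three-cell-type spheroids modelling solid tumor plus stroma served as the readout system; POL inhibitors were tested individually and in combination, concentration ranges set by clinical Cmax where known.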

[1] = second compound 0.0316 µM, first compound 0.0316 µM
[2] = second compound 0.0316 µM, first compound 0.1 µM
[3] = second compound 0.0316 µM, first compound 0.316 µM
[4] = second compound 0.0316 µM, first compound 1 µM
[5] = second compound 0.0316 µM, first compound 3.16 µM
[6] = second compound 0.0316 µM, first compound 10 µM
[7] = second compound 0.1 µM, first compound 0.0316 µM
[8] = second compound 0.1 µM, first compound 0.1 µM
[9] = second compound 0.1 µM, first compound 0.316 µM
[10] = second compound 0.1 µM, first compound 1 µM
[11] = second compound 0.1 µM, first compound 3.16 µM
[12] = second compound 0.1 µM, first compound 10 µM
[13] = second compound 0.316 µM, first compound 0.0316 µM
[14] = second compound 0.316 µM, first compound 0.1 µM
[15] = second compound 0.316 µM, first compound 0.316 µM
[16] = second compound 0.316 µM, first compound 1 µM
[17] = second compound 0.316 µM, first compound 3.16 µM
[18] = second compound 0.316 µM, first compound 10 µM
[19] = second compound 1 µM, first compound 0.0316 µM
[20] = second compound 1 µM, first compound 0.1 µM
[21] = second compound 1 µM, first compound 0.316 µM
[22] = second compound 1 µM, first compound 1 µM
[23] = second compound 1 µM, first compound 3.16 µM
[24] = second compound 1 µM, first compound 10 µM
[25] = second compound 3.16 µM, first compound 0.0316 µM
[26] = second compound 3.16 µM, first compound 0.1 µM
[27] = second compound 3.16 µM, first compound 0.316 µM
[28] = second compound 3.16 µM, first compound 1 µM
[29] = second compound 3.16 µM, first compound 3.16 µM
[30] = second compound 3.16 µM, first compound 10 µM
[31] = second compound 10 µM, first compound 0.0316 µM
[32] = second compound 10 µM, first compound 0.1 µM
[33] = second compound 10 µM, first compound 0.316 µM
[34] = second compound 10 µM, first compound 1 µM
[35] = second compound 10 µM, first compound 3.16 µM
[36] = second compound 10 µM, first compound 10 µM
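Further: spheroids exposed to compounds for seven days before readout.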

CCCS(=O)(=O)Nc1ccc(F)c(C(=O)c2c[nH]c3ncc(-c4ccc(Cl)cc4)cc23)c1F + COC1C(OC(N)=O)C(O)C(Oc2ccc3c(O)c(NC(=O)c4ccc(O)c(CC=C(C)C)c4)c(=O)oc3c2C)OC1(C)C showed an IC50 (second compound 0.0316 µM) of 5.65 µM, an IC50 (second compound 0.1 µM) of 6.17 µM and an IC50 (second compound 0.316 µM) of 5.04 µM. For the same compound, the IC50 (second compound 1 µM) was 5.74 µM, the IC50 (second compound 3.16 µM) was 5.75 µM and the IC50 (second compound 10 µM) was 6.76 µM. It also gave a viability, T/C [1] of 73.7%, a viability, T/C [2] of 113% and a viability, T/C [3] of 96.1%. It also gave a viability, T/C [4] of 117%, a viability, T/C [5] of 85% and a viability, T/C [6] of 15.7%. For the same compound, the viability, T/C [7] was 96.9%, the viability, T/C [8] was 112% and the viability, T/C [9] was 107%. For the same compound, the viability, T/C [10] was 109%, the viability, T/C [11] was 103% and the viability, T/C [12] was 12.1%. For the same compound, the viability, T/C [13] was 132%, the viability, T/C [14] was 121% and the viability, T/C [15] was 76.7%. It also gave a viability, T/C [16] of 99.8%, a viability, T/C [17] of 85% and a viability, T/C [18] of 12.4%. The viability, T/C [19] was 108%, the viability, T/C [20] was 77.6% and the viability, T/C [21] was 121%. The viability, T/C [22] was 94.5%, the viability, T/C [23] was 89.9% and the viability, T/C [24] was 13.3%. It also gave a viability, T/C [25] of 108%, a viability, T/C [26] of 117% and a viability, T/C [27] of 101%. For the same compound, the viability, T/C [28] was 95.5%, the viability, T/C [29] was 89.2% and the viability, T/C [30] was 16.6%. It also gave a viability, T/C [31] of 93.9%, a viability, T/C [32] of 83.7% and a viability, T/C [33] of 93.7%. It also gave a viability, T/C [34] of 82.5%, a viability, T/C [35] of 87.1% and a viability, T/C [36] of 30.9%.

CC[C@@]1(O)C(=O)OCc2c1cc1n(c2=O)Cc2cc3c(CN(C)C)c(O)ccc3nc2-1 + Cc1cccc(N(C)C(=O)C2C(O)CCN2c2nc(C)cc(C(F)(F)F)c2C#N)c1 was tested, and the IC50 (second compound 0.0316 µM) was 0.0652 µM, the IC50 (second compound 0.1 µM) was 0.0999 µM and the IC50 (second compound 0.316 µM) was 0.0695 µM. The IC50 (second compound 1 µM) was 0.0722 µM, the IC50 (second compound 3.16 µM) was 0.0974 µM and the IC50 (second compound 10 µM) was 0.0189 µM. For the same compound, the viability, T/C (second compound 0.0316 µM, first compound 0.000316 µM) was 98.7%, the viability, T/C (second compound 0.0316 µM, first compound 0.001 µM) was 102% and the viability, T/C (second compound 0.0316 µM, first compound 0.00316 µM) was 92.8%. For the same compound, the viability, T/C (second compound 0.0316 µM, first compound 0.01 µM) was 80.6%, the viability, T/C [1] was 61.8% and the viability, T/C [2] was 43.1%. It also gave a viability, T/C (second compound 0.1 µM, first compound 0.000316 µM) of 106%, a viability, T/C (second compound 0.1 µM, first compound 0.001 µM) of 94.5% and a viability, T/C (second compound 0.1 µM, first compound 0.00316 µM) of 88.4%. The viability, T/C (second compound 0.1 µM, first compound 0.01 µM) was 92.3%, the viability, T/C [7] was 73.6% and the viability, T/C [8] was 49.3%. It also gave a viability, T/C (second compound 0.316 µM, first compound 0.000316 µM) of 76.4%, a viability, T/C (second compound 0.316 µM, first compound 0.001 µM) of 108% and a viability, T/C (second compound 0.316 µM, first compound 0.00316 µM) of 91.4%. It also gave a viability, T/C (second compound 0.316 µM, first compound 0.01 µM) of 78%, a viability, T/C [13] of 76.2% and a viability, T/C [14] of 38.7%. It also gave a viability, T/C (second compound 1 µM, first compound 0.000316 µM) of 98.8%, a viability, T/C (second compound 1 µM, first compound 0.001 µM) of 75.8% and a viability, T/C (second compound 1 µM, first compound 0.00316 µM) of 83.8%. The viability, T/C (second compound 1 µM, first compound 0.01 µM) was 73.4%, the viability, T/C [19] was 76.6% and the viability, T/C [20] was 40.7%. The viability, T/C (second compound 3.16 µM, first compound 0.000316 µM) was 95.7%, the viability, T/C (second compound 3.16 µM, first compound 0.001 µM) was 79.3% and the viability, T/C (second compound 3.16 µM, first compound 0.00316 µM) was 77.9%. For the same compound, the viability, T/C (second compound 3.16 µM, first compound 0.01 µM) was 74.1%, the viability, T/C [25] was 69.4% and the viability, T/C [26] was 46%. For the same compound, the viability, T/C (second compound 10 µM, first compound 0.000316 µM) was 77.9%, the viability, T/C (second compound 10 µM, first compound 0.001 µM) was 92.3% and the viability, T/C (second compound 10 µM, first compound 0.00316 µM) was 85.2%. For the same compound, the viability, T/C (second compound 10 µM, first compound 0.01 µM) was 56.6%, the viability, T/C [31] was 50.6% and the viability, T/C [32] was 37.9%.

In the case of O=C(Nc1ccc(O)c(NS(=O)(=O)c2ccc(F)cc2)c1)c1ccc(-c2ccccc2)cc1 + Nc1ccc(C#CCN(C(=O)Cc2ncc(C(F)(F)F)cc2C(F)(F)F)c2ccc(F)cc2)nn1, the IC50 (second compound 0.0316 µM) is reported as over 10 µM, the IC50 (second compound 0.1 µM) is reported as over 10 µM and the IC50 (second compound 0.316 µM) is reported as over 10 µM. It also gave an IC50 (second compound 1 µM) of over 10 µM, an IC50 (second compound 3.16 µM) of over 10 µM and an IC50 (second compound 10 µM) of over 10 µM. It also gave a viability, T/C [1] of 95.1%, a viability, T/C [2] of 108% and a viability, T/C [3] of 103%. The viability, T/C [4] was 111%, the viability, T/C [5] was 110% and the viability, T/C [6] was 92%. For the same compound, the viability, T/C [7] was 90.1%, the viability, T/C [8] was 96.6% and the viability, T/C [9] was 97%. For the same compound, the viability, T/C [10] was 103%, the viability, T/C [11] was 119% and the viability, T/C [12] was 103%. The viability, T/C [13] was 84.2%, the viability, T/C [14] was 98.8% and the viability, T/C [15] was 91.2%. The viability, T/C [16] was 102%, the viability, T/C [17] was 110% and the viability, T/C [18] was 98.8%. For the same compound, the viability, T/C [19] was 90.7%, the viability, T/C [20] was 106% and the viability, T/C [21] was 101%. It also gave a viability, T/C [22] of 97.9%, a viability, T/C [23] of 89.7% and a viability, T/C [24] of 94.2%. For the same compound, the viability, T/C [25] was 97%, the viability, T/C [26] was 96.2% and the viability, T/C [27] was 104%. It also gave a viability, T/C [28] of 85.1%, a viability, T/C [29] of 104% and a viability, T/C [30] of 99.7%. The viability, T/C [31] was 103%, the viability, T/C [32] was 105% and the viability, T/C [33] was 98.6%. The viability, T/C [34] was 107%, the viability, T/C [35] was 90.8% and the viability, T/C [36] was 113%.
